The source made the active and inactive calls.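 Rule for the calls: active = fitted curve reaches 40% activation at a concentration no higher than the top valid tested dose; inconclusive = flat fit between 30% and 70% activation, or poor fit; inactive = uptake decrease, flat fit within 30% of zero, the rest.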

This passage reports activation (HDL uptake increase) results from PubChem BioAssay AID602191 (Broad Institute, 2012).

This test addresses Scavenger receptor class B member 1 (Mus musculus) (UniProt Q61009). The test is described as follows: activators of SR-BI-mediated HDL uptake, dose response, cell-based, ldlA[mSR-BI] CHO, DiI fluorescence, cherry-pick (AID 602191).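 Note: cell fluorescence from internalized DiI-labeled HDL after washing; 0% = median of DMSO wells and 100% = twice the DMSO signal.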 To be noted: ldlA[mSR-BI] CHO cells, 3 h, at 35 µM (top of the series).

Chain of Scavenger receptor class B member 1 (Mus musculus) (Q61009 whole entry, looked up): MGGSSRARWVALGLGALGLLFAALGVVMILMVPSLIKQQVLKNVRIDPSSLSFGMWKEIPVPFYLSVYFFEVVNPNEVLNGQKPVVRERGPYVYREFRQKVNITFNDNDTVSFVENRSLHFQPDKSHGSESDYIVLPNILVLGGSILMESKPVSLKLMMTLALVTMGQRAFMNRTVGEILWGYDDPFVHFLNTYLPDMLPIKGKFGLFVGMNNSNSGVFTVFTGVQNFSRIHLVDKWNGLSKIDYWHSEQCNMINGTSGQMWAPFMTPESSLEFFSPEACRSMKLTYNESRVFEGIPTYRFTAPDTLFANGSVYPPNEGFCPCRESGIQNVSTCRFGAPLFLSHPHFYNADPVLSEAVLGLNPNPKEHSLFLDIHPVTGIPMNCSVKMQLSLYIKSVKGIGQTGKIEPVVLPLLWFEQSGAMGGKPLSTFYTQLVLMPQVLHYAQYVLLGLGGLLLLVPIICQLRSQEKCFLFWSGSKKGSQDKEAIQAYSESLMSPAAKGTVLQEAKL

Take `COCCNC(=O)c1onc(CSc2ccc(F)c(F)c2)c1C(=O)O`: the activation (HDL uptake increase) is -4.96% (inactive).
For `CC(C)c1ccc(OCC(=O)NCCO)cc1`, the activation (HDL uptake increase) was 1.48% (inactive).
Turning to `CC1CCC(NC(=O)CCNS(=O)(=O)c2ccccc2)CC1` (centres undefined), the activation (HDL uptake increase) is 10.2% (inactive).
For `COc1ccc2cnnc(SCC(=O)Nc3ccc(C(C)=O)cc3)c2c1OC`, the activation (HDL uptake increase) is -18.2% (inactive).
For `Cc1ccc(-c2csc(=Nc3cccnc3)n2CCCN2CCCC2=O)cc1C`, the activation (HDL uptake increase) was -13.4% (inactive).
In the case of `Cc1cc(S(=O)(=O)NCCc2ccccc2)c(C)s1`, the activation (HDL uptake increase) was -1.19% (inactive).
As for `Cc1ccc(N2C(=O)C3C(C(=O)c4ccccc4)=NN(c4ccccc4)C3C2=O)cc1` (centres undefined), the activation (HDL uptake increase) is 0.966% (inactive).
For the compound `O=C(Cn1c(=O)cnc2ccccc21)NNC(=O)c1ccc(Cl)cc1`, the activation (HDL uptake increase) was -5.85% (inactive).
The same measure for `COCCN(Cc1nnc(-c2cccs2)o1)C(=O)c1cccc(S(=O)(=O)N2CCOCC2)c1`: -7.49% (inactive).
With `C=CCn1c(C(CCC(C)C)CC(C)(C)O)n[nH]c1=S` (centres undefined), the activation (HDL uptake increase) is 7.72% (inactive).
Take `COc1ccc(-n2nc3c(c2NC(=O)c2ccc(S(=O)(=O)N4CCOCC4)cc2)CS(=O)C3)cc1` (centres undefined): the activation (HDL uptake increase) is -10.8% (inactive).
Take `Cc1ccc(CN2CCNC(=O)C2CC(=O)N2CCN(c3ncccn3)CC2)o1` (centres undefined): the activation (HDL uptake increase) is -8.96% (inactive).
The same measure for `Cc1c(C)c2ccc(OCC(=O)NC(Cc3c[nH]c4ccc(O)cc34)C(=O)O)c(C)c2oc1=O` (centres undefined): -0.695% (inactive); for `CCN(CC(=O)Nc1c(F)cccc1F)C(=O)C1CCN(S(=O)(=O)c2ccc(F)cc2)CC1`: 11.6% (inactive); for `CC1Cc2cc(/C(O)=C3/C(=O)C(=O)N(CCN4CCOCC4)C3c3ccc([N+](=O)[O-])cc3)ccc2O1` (centres undefined): 13.1% (inactive).
As for `CC(Sc1ccc(S(=O)(=O)N(C)C)cn1)C(=O)NC1CCCC1` (centres undefined), the activation (HDL uptake increase) was -1.21% (inactive).
In the case of `CCOC(=O)C1CCCN(S(=O)(=O)c2ccc3ccccc3c2)C1` (centres undefined), the activation (HDL uptake increase) was -7.01% (inactive).
`COc1cccc(N2CCN(c3ccc4nnc(CCC(=O)Nc5cc(C)ccn5)n4n3)CC2)c1`: the activation (HDL uptake increase) was -11.4% (inactive).
With `O=C(NCCCCc1ccccc1)C1CC(c2cccc(F)c2)=NO1` (centres undefined), the activation (HDL uptake increase) is -4.48% (inactive).
On to `COc1ccc(C(=O)N2CCNC(=O)C2)cc1S(=O)(=O)Nc1ccc(Br)cc1`, for which the activation (HDL uptake increase) was -3.81% (inactive).
For the compound `CCc1ccc2[nH]c(=O)c(CN(CCN(C)C)C(=O)Nc3ccccc3OC)cc2c1`, the activation (HDL uptake increase) was -2.31% (inactive).
`CCN1CCN(C(=O)CCc2nc3ccccc3c(=O)[nH]2)CC1`: the activation (HDL uptake increase) was 9.34% (inactive).
Regarding `CCCCn1c(N)c(N(CCOC)C(=O)C2CC(=O)N(Cc3ccco3)C2)c(=O)[nH]c1=O` (centres undefined), the activation (HDL uptake increase) was 0.156% (inactive).
For `Cc1ccc(CS(=O)Cc2ccc(C(=O)NCc3ccccc3)o2)cc1` (centres undefined), the activation (HDL uptake increase) is 4.99% (inactive).
Regarding `O=C(CCCCCN1C(=O)c2ccccc2C1=O)Nc1ccc(C(=O)O)cc1`, the activation (HDL uptake increase) is -6.25% (inactive).
With `Cc1csc(SCC(=O)Nc2cc(C(N)=O)cc(C(N)=O)c2)n1`, the activation (HDL uptake increase) is -3.94% (inactive).
As for `CC1CCN(S(=O)(=O)c2ccc3c(c2)c(=O)c(C(=O)N2CCCCC2)cn3C)CC1`, the activation (HDL uptake increase) is -8.34% (inactive).
For `Cc1ccc(N(C)C(=O)CN(C)S(=O)(=O)c2ccc3c(c2)n(C)c(=O)c(=O)n3C)cc1`, the activation (HDL uptake increase) was 8.76% (inactive).
In the case of `CCc1ccc(C(=O)CN2C(=O)NC(C)(CCc3ccccc3)C2=O)cc1` (centres undefined), the activation (HDL uptake increase) is -8.25% (inactive).
Consider `Cc1cccc(N2CCN(C(=S)c3ccc(-c4ccccc4[N+](=O)[O-])o3)CC2)c1`, for which the activation (HDL uptake increase) is -6.03% (inactive).
Regarding `Cc1cc(NC(=O)CN2C(=O)NC(C)(c3ccc(OC(F)F)cc3)C2=O)no1` (centres undefined), the activation (HDL uptake increase) was -7.97% (inactive).
As for `COc1ccccc1CN(C(=O)CCl)C(C(=O)NC1CCCCC1)c1ccncc1` (centres undefined), the figure is 3.52% (inactive).
The same measure for `COc1ccc(C(C(=O)NC2CCCCC2)N(C(=O)CCl)c2ccc(C)cc2)cc1` (centres undefined): -7.32% (inactive); for `O=C(CCCc1nc2ccccc2s1)NCc1ccccc1`: -3.71% (inactive); for `COc1ccc(C(CNS(=O)(=O)c2ccc(NC(C)=O)c(OC)c2)N2CCCCC2)cc1` (centres undefined): 5.72% (inactive).
As for `CCN1CCN(C(c2cccc(OC)c2)c2sc3nc(C)nn3c2O)CC1` (centres undefined), the activation (HDL uptake increase) was -1.19% (inactive).
For `CC(C)C(NC(=O)c1ccccc1F)C(=O)NCc1ccccc1` (centres undefined), the activation (HDL uptake increase) was 4.3% (inactive).
On to `CC(C)CC(=O)c1c(O)c(C=O)c(O)c2c1O[C@@]1(C)[C@@H](C2)C[C@H]2C[C@@H]1C2(C)C`, for which the activation (HDL uptake increase) was -25.2% (inactive).
For the compound `CC(C)C[C@@H](CN1CCCC1CN1C(=S)NC[C@@H]1Cc1ccc(O)cc1)N1C[C@H](Cc2ccc(O)cc2)N(CCc2ccccc2)C1=S` (some centres undefined), the activation (HDL uptake increase) is 39.2% (inactive).
For `Cc1ccc(O)c(NC(=S)NC(=O)c2ccc(-c3ccc(Cl)cc3)o2)c1`, the activation (HDL uptake increase) was -9.38% (inactive).
Consider `O=C1CCCC/C=C\C[C@H](CC(=O)N(CCO)Cc2ccccc2)C(=O)N2CCC[C@@H]2CO1`, for which the activation (HDL uptake increase) was -5.56% (inactive).
Consider `COC(=O)Cc1c(C)c2ccc(OCc3nn[nH]n3)cc2oc1=O`, for which the activation (HDL uptake increase) was 4.87% (inactive).
The same measure for `O=C1N[C@@H](c2ccccc2)COC(=O)[C@H](Cc2ccc(F)cc2)CC/C=C/C[C@H]1CC(=O)N(CCO)Cc1ccccc1`: -5.36% (inactive).
Regarding `Cc1ccc(NC(=O)c2nc[nH]c2C(=O)NCCN(CCNC(=O)c2[nH]cnc2C(=O)Nc2ccc(C)cc2)CCNC(=O)c2[nH]cnc2C(=O)Nc2ccc(C)cc2)cc1`, the activation (HDL uptake increase) is 8.14% (inactive).
As for `CN1CCN(S(=O)(=O)c2cccc(C(=O)NC3(C)CCS(=O)(=O)C3)c2)CC1` (centres undefined), the figure is -5.92% (inactive); as for `CCCCCC1CC(CC(=O)O)C(=O)O1` (centres undefined), -5.76% (inactive).
`Cc1nn(CC(=O)OC(C)C(=O)Nc2ccccc2[N+](=O)[O-])c(C)c1[N+](=O)[O-]` (centres undefined): the activation (HDL uptake increase) is -9.77% (inactive).
For the compound `O=C(COC(=O)CNC(=O)c1ccc(Cl)cc1Cl)NCc1ccco1`, the activation (HDL uptake increase) is -5.97% (inactive).
For `Cc1cc(C)nc(SCC(=O)OC(C)C(=O)Nc2ccccc2)n1` (centres undefined), the activation (HDL uptake increase) is -8.43% (inactive).
Turning to `CCC[C@@H](CNC)NC[C@H](Cc1ccccc1)NCCCCc1ccccc1`, the activation (HDL uptake increase) was -3.49% (inactive).
The same measure for `COc1ccc(CCNC(=S)N2CCN(S(=O)(=O)c3ccc(Cl)cc3)CC2)cc1`: 5.66% (inactive); for `O=C1NCCCC1C(=O)NCCNC(=O)C(F)(F)F` (centres undefined): -6.55% (inactive).
For `Cc1ccc(OCCOCCN(C)C)c(Cl)c1`, the activation (HDL uptake increase) was 3.89% (inactive).
As for `Cc1c(NC(=O)c2ccc(Br)o2)cccc1C(=O)O`, the figure is 5.98% (inactive).
Consider `NC(=O)C1CCN(C(=O)C2CC(=O)N(c3ccc4c(c3)OCCO4)C2)CC1` (centres undefined), for which the activation (HDL uptake increase) was -4.66% (inactive).
Consider `COCCCNC(=O)CC(NS(=O)(=O)c1ccc(OC)cc1)c1ccc(OC)cc1` (centres undefined), for which the activation (HDL uptake increase) is -4.2% (inactive).
The same measure for `O=C(CCN1C(=O)c2ccccc2C1=O)C1=NN[C@@H]2C(=O)N(c3cccc(F)c3)C(=O)[C@H]12`: -9.51% (inactive); for `CC(=O)N1CCN(C(=O)c2ccc(-n3c(C)ccc3C)cc2)CC1`: -10.8% (inactive).
Consider `NNC(=O)CNC(c1ccccc1)c1cc(Br)ccc1NC(=O)CCN1CCOCC1` (centres undefined), for which the activation (HDL uptake increase) was -9.57% (inactive).
As to `O=S1(=O)CCO[C@H]2Cc3ccccc3[C@H]2N1Cc1ccccc1`, the activation (HDL uptake increase) is -12.6% (inactive).
As for `CC(CN(C)Cc1ccccc1)OC(=O)c1cccc(F)c1` (centres undefined), the activation (HDL uptake increase) was -8.97% (inactive).
Regarding `CCN1CCN(C(CNS(=O)(=O)c2ccc(Br)cc2)c2cccnc2)CC1` (centres undefined), the activation (HDL uptake increase) is -1.44% (inactive).
Regarding `Cn1c(C(=O)N2CCC(C(N)=O)CC2)cc2cc(Cl)ccc21`, the activation (HDL uptake increase) was -7.74% (inactive).
Take `COc1ccc(CCNS(=O)(=O)c2cn(C)c(=O)n(C)c2=O)cc1OC`: the activation (HDL uptake increase) is -3.3% (inactive).
Consider `O=C(COc1ccc(C(=O)c2ccccc2)cc1)NC1CCCCC1`, for which the activation (HDL uptake increase) is -7.46% (inactive).
As to `CC(=O)NC(Cc1ccccc1)C(=O)OCC(=O)c1ccccc1` (centres undefined), the activation (HDL uptake increase) was -12% (inactive).
Regarding `C/C(=N\N1C(=O)c2ccccc2NC1c1ccco1)c1ccccc1O` (centres undefined), the activation (HDL uptake increase) is -54.6% (inactive).
The same measure for `COc1ccc(N2CC(NC(=O)N3CCN(C(=O)c4ccco4)CC3)CC2=O)cc1OC` (centres undefined): 11% (inactive).
In the case of `Cc1ccccc1-n1nc2c(c1NC(=O)c1ccco1)CS(=O)(=O)C2`, the activation (HDL uptake increase) was -9.94% (inactive).
For the compound `Cc1cccc(N2C(=O)N3[C@H](c4ccc(Br)cc4)[C@@H]4C(=O)N(C(C)(C)C)C(=O)[C@@H]4[C@]3(C)C2=O)c1`, the activation (HDL uptake increase) was 6.14% (inactive).
For `COc1ccc(C(=O)Nc2nnc(SCC(=O)Nc3ccc(NC(C)=O)cc3)s2)c(OC)c1`, the activation (HDL uptake increase) was -6.9% (inactive).
Regarding `NCCCC[C@H]1CNC(=O)C(=O)N1CCc1cc(C(F)(F)F)cc(C(F)(F)F)c1`, the activation (HDL uptake increase) is 6.34% (inactive).
Take `CCOc1ccc(N(CC(=O)NC2CCCCCC2)S(=O)(=O)c2ccccc2)cc1`: the activation (HDL uptake increase) is 11.8% (inactive).
Regarding `COc1ccc(N2CCN(C(=O)NC(=O)c3ccc(Cl)cc3)CC2)cc1`, the activation (HDL uptake increase) is -6.64% (inactive).
